Experimental data reported in patent EP4273147A1, “SUBSTITUTED SPIROLACTAMS, SALTS THEREOF AND THEIR USE AS HERBICIDALLY ACTIVE SUBSTANCES” (Bayer Aktiengesellschaft, priority 2022, dated 2023).

Assays:
STEME = experiment: Herbicidal pre-emergence action (Table A6); assay type: in vivo, Stellaria media; conditions: application rate 1280 g/ha; visual grading after ca. 3 weeks
Description: (§1) Seeds of mono- and dicotyledonous weed plants were sown in plastic pots (double sowings with one species of mono- and one species of dicotyledonous weed plants per pot), in sandy loam, and covered with soil.

POAAN [1] = experiment: Herbicidal pre-emergence action (Table A7); assay type: in vivo, Poa annua; conditions: visual grading after ca. 3 weeks; for pest or weed control at 320 g/ha: Poa annua, pre-emergence, 504 h, read-out: pre-emergence activity against POAAN
Description: as §1

ALOMY = experiment: Herbicidal pre-emergence action (Table A9); assay type: in vivo, Alopecurus myosuroides; conditions: application rate 1280 g/ha; visual grading after ca. 3 weeks
Description: as §1

VERPE [2] = experiment: Herbicidal pre-emergence action (Table A11); assay type: in vivo, Veronica persica; conditions: application rate 1280 g/ha; visual grading after ca. 3 weeks
Description: as §1

DIGSA = experiment: Herbicidal pre-emergence action (Table A12); assay type: in vivo, Digitaria sanguinalis; conditions: visual grading after ca. 3 weeks
Description: as §1

ECHCG [3] = experiment: Herbicidal pre-emergence action (Table A2); assay type: in vivo, Echinochloa crus-galli; conditions: visual grading after ca. 3 weeks
Description: as §1

LOLRI = experiment: Herbicidal pre-emergence action (Table A3); assay type: in vivo, Lolium rigidum; conditions: visual grading after ca. 3 weeks; for pest or weed control at 1280 g/ha: Lolium rigidum, pre-emergence, 504 h, read-out: pre-emergence activity against LOLRI
Description: as §1

MATIN = experiment: Herbicidal pre-emergence action (Table A4); assay type: in vivo, Matricaria inodora; conditions: application rate 1280 g/ha; visual grading after ca. 3 weeks
Description: as §1

SETVI [4] = experiment: Herbicidal pre-emergence action (Table A5); assay type: in vivo, Setaria viridis; conditions: visual grading after ca. 3 weeks
Description: as §1

KCHSC = experiment: Herbicidal pre-emergence action (Table A10); assay type: in vivo, Kochia scoparia; conditions: application rate 1280 g/ha; visual grading after ca. 3 weeks
Description: as §1

ECHCG [5] = experiment: Herbicidal post-emergence action (Table B3); assay type: in vivo, Echinochloa crus-galli; conditions: application rate 1280 g/ha, rated visually after about 3 weeks
Procedure: (§2) Seeds of mono- and dicotyledonous weed plants were placed in plastic pots in sandy loam soil (doubly sown with in each case one species of mono- or dicotyledonous weed plants per pot), covered with soil and cultivated in a greenhouse under controlled growth conditions. 2 to 3 weeks after sowing, the test plants were treated at the one-leaf stage. […] After the test plants had been kept in the greenhouse under optimum growth conditions for about 3 weeks, the activity of the preparations was rated visually in comparison to untreated controls. For example, 100% activity = the plants have died, 0% activity = like control plants.

POAAN [6] = experiment: Herbicidal post-emergence action (Table B7); assay type: in vivo, Poa annua; conditions: application rate 1280 g/ha
Procedure: as §2

SETVI [7] = experiment: Herbicidal post-emergence action (Table B8); assay type: in vivo, Setaria viridis
Procedure: as §2

VERPE [8] = experiment: Herbicidal post-emergence action (Table B10); assay type: in vivo, Veronica persica; conditions: application rate 1280 g/ha
Procedure: as §2

| SMILES | pre-emergence activity against STEME (STEME) | pre-emergence activity against POAAN (POAAN [1]; application rate 320 g/ha) | pre-emergence activity against ALOMY (ALOMY) | pre-emergence activity against VERPE (VERPE [2]) | pre-emergence activity against DIGSA (DIGSA; application rate 1280 g/ha) | pre-emergence activity against ECHCG (ECHCG [3]; application rate 320 g/ha) | pre-emergence activity against MATIN (MATIN) | pre-emergence activity against SETVI (SETVI [4]; application rate 320 g/ha) | post-emergence activity against ECHCG (ECHCG [5]) | post-emergence activity against POAAN (POAAN [6]) | other results |
| --- | --- | --- | --- | --- | --- | --- | --- | --- | --- | --- | --- |
| COc1cccc(F)c1CN1CCCC2(CCCN(Cc3c(F)cccc3OC)C2=O)C1=O (racemic) [I-033] | 100% | 100% | 90% | 90% | 100% |  |  |  |  |  |  |
| O=C1N(Cc2ccccc2)CCCC12CCN(Cc1ccccc1F)C2=O (racemic) [I-059] | 90% | 100% |  |  |  | 100% | 90% | 100% | 90% | 90% | pre-emergence activity against LOLRI (LOLRI; application rate 1280 g/ha): 100%; pre-emergence activity against KCHSC (KCHSC): 90%; pre-emergence activity against DIGSA (DIGSA; application rate 320 g/ha): 90% |
| Cc1ccccc1CN1CCCC2(CCCN(Cc3c(F)cccc3F)C2=O)C1=O (racemic) [I-051] |  |  | 90% | 90% |  | 100% |  | 100% | 90% | 90% | pre-emergence activity against LOLRI (LOLRI; application rate 320 g/ha): 100%; pre-emergence activity against POAAN (POAAN [1]; application rate 1280 g/ha): 90%; post-emergence activity against SETVI (SETVI [7]; application rate 1280 g/ha): 90% |
| O=C1N(Cc2ccc(F)c(F)c2F)CCCC12CCCN(Cc1ccc(F)c(F)c1F)C2=O (racemic) [I-189, 2,8-bis(2,3,4-trifluorophenylmethyl)-2,8-diazaspiro[5.5]undecane-1,7-dione] | 90% |  | 100% |  |  | 100% | 90% | 100% |  |  | pest or weed control at 1280 g/ha (LOLRI; application rate 1280 g/ha): 100%; pest or weed control at 320 g/ha (POAAN [1]; application rate 320 g/ha): 100%; pre-emergence activity against KCHSC (KCHSC): 100%; pre-emergence activity against DIGSA (DIGSA; application rate 320 g/ha): 90%; pest or weed control at 1280 g/ha (ECHCG [5]; Echinochloa crus-galli, post-emergence, 504 h, read-out: post-emergence activity against ECHCG): 90%; post-emergence activity against SETVI (SETVI [7]; application rate 320 g/ha): 90% |
| O=C1N(Cc2ccsc2)CCCC12CCCN(Cc1c(F)cccc1F)C2=O (racemic) [I-075] | 100% |  | 90% |  |  | 100% | 90% | 90% | 90% | 90% | pre-emergence activity against LOLRI (LOLRI; application rate 320 g/ha): 100%; pre-emergence activity against POAAN (POAAN [1]; application rate 1280 g/ha): 100% |
| Cc1nc(Cl)sc1CN1CCCC2(CCCN(Cc3sc(Cl)nc3C)C2=O)C1=O (racemic) [I-201, 2,8-bis[(2-chloro-4-methyl-1,3-thiazol-5-yl)methyl]-2,8-diazaspiro[5.5]undecane-1,7-dione] |  |  | 100% |  | 90% |  |  |  |  | 90% | pest or weed control at 1280 g/ha (LOLRI; application rate 1280 g/ha): 100%; pest or weed control at 320 g/ha (POAAN [1]; application rate 320 g/ha): 100%; post-emergence activity against SETVI (SETVI [7]; application rate 1280 g/ha): 90% |
| O=C1N(Cc2ccccc2F)CCCC12CCCN(Cc1ccccc1F)C2=O (single isomer, unassigned) [I-056] | 90% | 100% |  |  | 100% |  |  |  |  |  | pre-emergence activity against ECHCG (ECHCG [3]; application rate 1280 g/ha): 100%; pre-emergence activity against LOLRI (LOLRI; application rate 1280 g/ha): 100%; pre-emergence activity against SETVI (SETVI [4]; application rate 1280 g/ha): 100%; post-emergence activity against VERPE (VERPE [8]): 90% |
| O=C1N(Cc2ccccc2Cl)CCCC12CCCN(Cc1ccccc1Cl)C2=O (racemic) [I-054] |  | 100% |  | 90% |  | 100% |  | 100% |  |  | post-emergence activity against VERPE (VERPE [8]): 90% |
